{"source": "patent US9839594B2", "about": "“Skin-moisturising or wrinkle-improving external composition and cosmetic composition” (KOREA INSTITUTE OF ORIENTAL MEDICINE, priority 2012, dated 2017)", "assay_type_in_all_cases": "in vivo, hairless mice (male HR-1)", "key": {"[1]": {"test_system": "back skins of hairless mice", "test": "Transepidermal water loss (TEWL) analysis", "conditions": "0.25% (w/v) topical, 12 weeks; UVB irradiation; Tewameter at 23° C., relative humidity 50%; p<0.01", "method": "(§1) 7-week old male hairless mice (male HR-1, hairless mice, Japan SLC, Inc.), the experimental animals, were purchased from Central Lab. Animal Inc (Seoul, Korea). and used after an adaption period of a week. Only healthy animals were used in the experiments by observing general conditions during the adaption period. The breeding environment was maintained at 23±3° C. with 50±5% humidity with a light-dark cycle of 12 hours (7:00-19:00/lighting time). […]\n(§2) Ultraviolet irradiation was performed on the experimental groups except for the control group using a UVB lamp (Mineralight UV Display lamp, UVP, USA) three times a week for 8 weeks. […] The UV irradiance was measured by a radiometry instrument (Delta OHM, Italy), and then, was adjusted according to irradiation time.\nTo confirm the skin-moisturizing effect, the transepidermal water loss analysis was carried out with back skins of hairless mice in each experimental group. The transepidermal water loss level refers to the water quantity diffused from a skin, and if the level is high, it would mean that the skin moisturizing function is weakened, and that the function of innate skin barrier is damaged. […] The evaporated water quantity was then measured using Tewameter, and the skin moisturizing-ability was calculated."}, "[2]": {"test_system": "back skin tissues of hairless mice", "test": "Epidermis thickness measured in H&E-stained tissues", "conditions": "0.25% (w/v) topical, 12 weeks; UVB irradiation; p<0.05", "method": "as §1, with “time). During the experiments, seven experimental animals per each experimental group were raised in a polycarbonate cage (200×320×145 mm, Three-shine Co., Daejeon, Korea), and the animals were given both mouse feed 5L79 (Charles river, USA) and tap water for drinking sterilized with UV rays to be consumed freely.” for “time).”\nas §2, with “time. […]” for “time.”\nThe epidermis thickness was measured from the keratin layer to the epidermal basement membrane of tissues, which were stained with H&E in Experimental Example 3), by a ruler installed in a microscope, and the result is shown in FIG. 6."}, "skins of hairless mice": {"test_system": "skins of hairless mice", "test": "Skin wrinkle measurement with silicone skin replica of back skin of UV-irradiated hairless mice", "conditions": "12 weeks", "method": "(§3) 7-week old male hairless mice (male HR-1, hairless mice, Japan SLC, Inc.), the experimental animals, were purchased from Central Lab. Animal Inc (Seoul, Korea). and used after an adaption period of a week. Only healthy animals were used in the experiments by observing general conditions during the adaption period. The breeding environment was maintained at 23±3° C. with 50±5% humidity with a light-dark cycle of 12 hours (7:00-19:00/lighting time). During the experiments, seven experimental animals per each experimental group were raised in a polycarbonate cage (200×320×145 mm, Three-shine Co., Daejeon, Korea), and the animals were given both mouse feed 5L79 (Charles river, USA) and tap water for drinking sterilized with UV rays to be consumed freely.\nThe experiments were carried out on the following groups: a control group (Con), a UV-treated group (UV), an excipient-treated group (Vehicle), and a group treated by the compound represented by Formula 1 (TM), and the samples were administered thereto. The sample administration was performed for 12 weeks in total by spreading the samples onto skins. […]\nas §2\nThe degree of wrinkle formation was measured with a silicone skin replica of the back skins of the hairless mice of each experimental group. […] A shadow image, generated according to the thickness of the skin replica, was filed using a CCD camera, and the depth and length of wrinkles were measured using the Skin Visiometer VL 650 software, which is a computer image analysis system. […]"}, "[3]": {"test_system": "back skin tissues of hairless mice", "test": "Histological observation of skin (H&E and Masson's trichome staining)", "conditions": "0.25% (w/v) topical, 12 weeks, UVB irradiation", "method": "as §3\nThe experiments were carried out on the following groups: a control group (Con), a UV-treated group (UV), an excipient-treated group (Vehicle), and a group treated by the compound represented by Formula 1 (TM), and the samples were administered thereto. The sample administration was performed for 12 weeks in total by spreading the samples onto skins. For the compound treated group (TM), the compound was dissolved in dimethyl sulfoxide (DMSO), and subsequently in a mixed solution containing propylene glycol, ethanol, and poly ethylene glycol with a 1:1:1 ratio, and the dissolved formulation (the final concentration of the compound was 0.25% (w/v)) was applied to skins with the amount of 40 uL per 6 cm^2 once a day for 5 days a week. The excipient-treated group (Vehicle) were treated in the same manner as the compound treated group (TM), except the compound omitted.\nas §2, with “time. […]” for “time.”"}, "[4]": {"conditions": "compared to UV-treated group and excipient-treated group"}}, "data": [{"smiles": "C[C@H]1CCC2(OC1)OC1CC3C4CC[C@@H]5CC(OC6OC(CO)C(O)C(O)C6OC6OC(CO)C(O)C(O)C6O)CC[C@]5(C)C4CC[C@]3(C)C1[C@@H]2C", "note": "(some centres unmarked) [compound represented by Formula 1]", "values": [{"measurement": "skin water loss induced by UV rays (transepidermal water loss, FIG. 7)", "setting": "[1]", "value": "significantly prevented"}, {"measurement": "epidermis thickness (keratin layer to epidermal basement membrane, FIG. 6)", "setting": "[2]", "value": "significantly reduced"}, {"measurement": "degree of skin-wrinkle formation (skin replica image, FIG. 1)", "setting": "skins of hairless mice; 0.25% (w/v) spread onto skin, 40 uL per 6 cm^2 once a day 5 days a week, UVB irradiation 8 weeks, compared to UV-treated group", "value": "thick wrinkles were alleviated"}, {"measurement": "mean wrinkle length (FIG. 2)", "setting": "skins of hairless mice; 0.25% (w/v) topical, UVB irradiation, compared to UV group and excipient-treated group (Vehicle), p<0.0001", "value": "significantly reduced"}, {"measurement": "mean wrinkle depth (FIG. 3)", "setting": "skins of hairless mice; 0.25% (w/v) topical, UVB irradiation, compared to UV-treated group, p<0.0001", "value": "significantly reduced"}, {"measurement": "collagen fibers (Masson's trichome staining, FIG. 5)", "setting": "[3]; compared to UV-treated group", "value": "collagen fibers were increased"}, {"measurement": "cornified layers (H&E staining, FIG. 4)", "setting": "[3]; [4]", "value": "cornified layers were alleviated"}, {"measurement": "epidermis (H&E staining, observed, FIG. 4)", "setting": "[3]; [4]", "value": "thinner epidermises were observed"}]}]}
